Experimental data: patent publication US7998736B2, “Adoptive immunotherapy with enhanced T lymphocyte survival” (The United States of America as represented by the …, priority 2004, dated 2011)

How the values were obtained:
IL-15Rα = assay: IL-15Ralpha expression by flow cytometry; assay type: cell-based, human; settings: OKT3 stimulated lymphocytes, FIG. 15
Source text: In vitro, supraphysiologic levels of cytokine can engage intermediate and low affinity IL-15 receptors on lymphocytes lacking IL-15Rα. […] IL-15Rα was detected with a polyclonal, biotinylated antibody and biotinylated isotype-matched control antibody; cell surface-bound antibody was then labeled with streptavidin-PE (R&D Systems). PE was detected through flow cytometry.

CTLL-2 cells = assay: CTLL-2 proliferation assay (3H-thymidine); assay type: cell-based, mouse; settings: Sup-T1 supernatants or control cytokine, 24 h
Procedure: The CTLL-2 assay was used to determine whether IL-15 produced by transduced Sup-T1 cells was biologically active.
CTLL-2 cells were grown in culture for 4 days and then harvested and washed twice in PBS and then plated into a 96-well plate, 5×10^3 cells/well. The CTLL-2 cells were incubated in the absence of cytokines for 4 hours. Supernatants from the transduced Sup-T1 cells were then added to the culture in serial dilutions. […] The CTLL-2 cells were cultured for a total of 24 hours; during the final six hours ^3H-Thymidine was added to each well. The CTLL-2 cells were harvested to a filter and read on a β-counter.

IL-15: exogenous recombinant human IL-15 added to culture media
IL-15Rα staining (IL-15Rα): did not manifest IL-15Rα staining
proliferation of CTLL-2 (CTLL-2 cells): did proliferate
